# Assay results taken from PMC6444592, “Citrullination of HP1γ chromodomain affects association with chromatin” (Epigenetics & Chromatin, 2019).
# Legend:
# [1] = system: mESCs; assay: live-cell single-particle tracking, 13.5 ms, jump distance analysis; assay type: cell-based, mouse; details: for Diffusion coefficient, Bound / Diffusion coefficient, Diffusing / Percentage, Bound / Percentage, Diffusing: 13.5 ms
# Protocol: Parental E14 mouse embryonic stem cell (mESC) line was profiled by transcriptome analysis, qPCR and potency assays and was routinely tested for mycoplasma contamination and tested negative. Cells were cultured in DMEM (Gibco) supplemented with 15% standard FCS (Gibco), 0.1 mM non-essential amino acids (Gibco), 1% penicillin/streptomycin, 2 mM L-glutamine (Gibco), 1 mM sodium pyruvate (Gibco), 0.1 mM β-mercaptoethanol (Life Technologies) and 10^6 units/l mLIF (ESGRO, Millipore). E14 cells were stored in incubators at 37 °C in 7.5% CO2 (100% humidity) and maintained in 0.1% gelatin coated 10-cm culture dishes with 1:6 passaging every 2 days. Media was changed on a daily basis. E14 ESCs expressing mouse mEos3.2–HaloTag-HP1 fusion proteins were generated by transfecting appropriate pSB7 plasmids into E14 cells using Lipofectamine 2000 transfection reagent (Invitrogen), followed by selection in 600 µg/ml geneticin (Life Technologies). After 2 weeks of geneticin selection, cells were sorted using a Sony SH800S cell sorter for the expression of mEos3.2. Differentiation of ESCs was induced by LIF withdrawal. ESCs cultured in complete ES cell media (+ LIF) were trypsinised and washed twice in 1x PBS to remove residual LIF, seeded into ES cell media without LIF and incubated for 24, 48 or 72 h.
# An IX73 Olympus inverted microscope was used with circularly polarised laser beams aligned and focused at the back aperture of an Olympus 1.40 NA 100 × oil objective (Universal Plan Super Apochromat, 100 × , NA 1.40, UPLSAPO100XO/1.4). Continuous wavelength diode laser light sources used include a 561-nm (Cobolt, Jive 200, 200 mW) and a 405-nm laser (Stradus, Toptica, 405–100, 100 mW). Oblique angle illumination was achieved by aligning the laser off axis such that the emergent beam at the sample interface was near-collimated and incident at an angle slightly less than the critical angle θc ~ 67° for a glass/water interface. This generated a ~ 50 μm diameter excitation footprint. The power of the collimated beams at the back aperture of the microscope was 10 kW/cm^2 and 10–100 W/cm^2 for the 561-nm and 405-nm laser beams, respectively. The lasers were reflected by dichroic mirrors (Semrock, Di01-R405/488/561/635). The fluorescence emission was collected through the same objective and then further filtered using a combination of long-pass and band-pass filters (BLP01-561R and FF01-587/35 for 561 nm excitation). The emission signal was projected onto an EMCCD (Photometrics, Evolve 512 Delta) with an electron multiplication gain of 250 ADU/photon operating in a frame transfer mode.
# mESCs expressing mEos3.2–HaloTag-tagged HP1γ were passaged 2 days before imaging onto 35-mm glass bottom dishes No 1.0 (MatTek Corporation P35G-1.0-14-C Case) in phenol red-free serum and LIF conditions, if not stated otherwise. Just before single-particle tracking (SPT) imaging experiments, cells were labelled with 0.5 nM HaloTag–JF549 ligand for at least 15 min, followed by two washes in PBS and a 30-min incubation at 37 °C in media, before imaging the cells in fresh phenol red-free serum and LIF conditions. Cells were under-labelled to prevent overlap of fluorophores during SPT. Using 561 nm excitation, fluorescence images were collected as movies of 10,000 frames at 13.5 ms or 1000 to 5000 frames at 500 ms exposure. For live-cell tracking, data were collected for three biological replicates on separate dishes and the average values compared.
# Live-cell 13.5-ms single-molecule traces were analysed using software that detects single-molecule trajectories from SPT movies. Briefly, the code detected puncta positions in each image frame using a brightness-weighted centroid after applying a band-pass filter to remove low-frequency background and high-frequency noise from the image data. To track the HP1 single molecules, only fluorescent puncta smaller than 3 pixels and with a signal to noise greater than 8 were analysed. […]
# [2] = system: H3K9me3(1–16) peptides; assay: peptide pulldown assay; assay type: binding; details: 300 mM NaCl HBS-EP; Coomassie gel; n = 3 (p values 0.021, 0.008; ns 0.181)
# Protocol: H3K9me3 or unmethylated H3(1–16) peptides, linked to Dynabeads MyOne streptavidin T1 (Thermo Fisher Scientific), were used in pulldown assays with eluted GST-HP1 in HBS-EP (300 mM NaCl, 10 mM HEPES KOH pH 7.4, 5 mM EDTA and 0.2% NP-40). Pulldown assays were performed in 300 mM NaCl HBS-EP as previously described. Samples were resuspended in 2 × Laemmli buffer and resolved by SDS-PAGE followed by Coomassie-blue staining. Images were quantified using ImageJ software.
# [3] = system: H3K9me3(1–16) peptides; assay: bio-layer interferometry (BLI); assay type: binding; details: 20 mM Hepes KOH pH 7.2, 70 mM KCl, GST fusion, association 120 s, dissociation 120 s, WT 28.0 μM, R38/9K 25.5 μM, R38/9A 28.3 μM and lower concentrations
# Protocol: Recombinant mouse full-length HP1 wildtype and mutant proteins were expressed in (as GST fusion proteins), and purified from, Escherichia coli as described. Proteins were concentrated using Amicon Ultra centrifugation filters with a 30 kDa cutoff (Millipore), washed into binding buffer (20 mM Hepes KOH pH 7.2, 70 mM KCl, 1 mM DTT, 0.1% Tween-20, 5% glycerol). Protein concentrations were determined by Bradford protein assay against a BSA standard, and purity was verified by SDS-PAGE followed by Coomassie-blue staining. Real-time binding assays of GST-HP1γ were performed using the BLItz® system (ForteBio) in binding buffer (+ 0.1% BSA). Biotinylated H3(1–16) peptides (NH2-[…](me3)STGGKAP-Biotin) were immobilised to Dip and Read High Precision Streptavidin (SAX) Biosensors (ForteBio), and kinetics for a range of protein concentrations were measured under advanced kinetics settings (1. initial baseline measuring buffer only: 30 s, 2. loading of peptides onto sensors: 120 s, 3. effective baseline measurement: 30 s, 4. association of GST-HP1γ proteins: 120 s, 5. dissociation of GST-HP1γ proteins: 120 s). The data were normalised to the effective baseline signal by subtracting the average baseline value (150–180 s) from each data point (150–420 s). […] Raw data are summarised in Additional file 3: Table S1.
# [4] = system: PADI4; assay: in vitro citrullination (deimination) assay of HP1γ; assay type: biochemical, human; details: with calcium; for citrullination by PADI4, in words: GST fusion proteins, anti-peptidyl-citrulline immunoblot, n = 3 (p values 0.002, 0.003, 0.008)
# Protocol: For immunoblotting, cells were lysed in 2 × Laemmli buffer and sonicated in a water bath (Fisherbrand) for 3 min to shear genomic DNA, spun down at full speed in a microfuge for 15 min and incubated for 5 min at 95 °C. Proteins were resolved by SDS-PAGE, transferred to nitrocellulose membrane (Millipore) using wet transfer (transfer buffer: 192 mM glycine, 25 mM Tris.HCl pH8.8) and incubated in blocking solution (5% BSA in TBS containing 0.5% Tween-20 for citrulline sensitive antibodies and 5% non-fat milk powder in TBS containing 0.1% Tween-20 for all other antibodies) for 1 h at room temperature (RT). Membranes were incubated with primary antibody at 4 °C o/n and appropriate HRP-conjugated secondary antibody for 1 h at RT. Membranes were then incubated for enhanced chemiluminescence (ECL, Promega), and proteins were detected by exposure to X-ray film or using the ChemiDoc™ MP imaging system (Bio-Rad). Images were quantified using ImageJ analysis software. Primary antibodies diluted in blocking solution were used to detect citrullinated histone H3R2 (H3R2-Cit, Abcam ab176843 at 1:1000 dilution), HP1γ (Millipore 05-690 MAB clone 42s2 [16] at 1:1000 dilution), β-Tubulin (Abcam ab6046 at 1:1000 dilution) and peptidyl-citrulline (Millipore MABN328, clone F95 [48] at 1:1000 dilution). HRP-conjugated secondary antibodies diluted in blocking solution were used against mouse IgG (Dako, P0447 at 1:5000 dilution), rabbit IgG (Abcam, ab6721 at 1:20,000 dilution) and sheep IgG (Abcam, ab6747 at 1:5000 dilution).
# In vitro deimination of GST-HP1 variants was carried out as described previously [22]. In vitro deimination assays were performed in the presence and absence of 100 ng H3(1–16) or H3K9me3 peptides as appropriate. Samples were resuspended in 1 × Laemmli buffer for immunoblot analysis.
# [5] = system: mESCs; assay: immunoprecipitation of endogenous HP1γ and anti-peptidyl-citrulline immunoblot; assay type: cell-based, mouse; details: −LIF 72 h versus +LIF; nuclear lysates; three replicates
# Protocol: For immunoblotting, cells were lysed in 2 × Laemmli buffer and sonicated in a water bath (Fisherbrand) for 3 min to shear genomic DNA, spun down at full speed in a microfuge for 15 min and incubated for 5 min at 95 °C. Proteins were resolved by SDS-PAGE, transferred to nitrocellulose membrane (Millipore) using wet transfer (transfer buffer: 192 mM glycine, 25 mM Tris.HCl pH8.8) and incubated in blocking solution (5% BSA in TBS containing 0.5% Tween-20 for citrulline sensitive antibodies and 5% non-fat milk powder in TBS containing 0.1% Tween-20 for all other antibodies) for 1 h at room temperature (RT). Membranes were incubated with primary antibody at 4 °C o/n and appropriate HRP-conjugated secondary antibody for 1 h at RT. Membranes were then incubated for enhanced chemiluminescence (ECL, Promega), and proteins were detected by exposure to X-ray film or using the ChemiDoc™ MP imaging system (Bio-Rad). Images were quantified using ImageJ analysis software. Primary antibodies diluted in blocking solution were used to detect citrullinated histone H3R2 (H3R2-Cit, Abcam ab176843 at 1:1000 dilution), HP1γ (Millipore 05-690 MAB clone 42s2 [16] at 1:1000 dilution), β-Tubulin (Abcam ab6046 at 1:1000 dilution) and peptidyl-citrulline (Millipore MABN328, clone F95 [48] at 1:1000 dilution). […]
substance,measurement,setting,value
"HP1γI165K: chromoshadow domain (CSD) mutant HP1γI165K, which prevents dimerisation of HP1γ [reference compound]","Diffusion coefficient, Bound","[1]; +LIF, replicate i",0.081 µm2s-1
same,"Diffusion coefficient, Diffusing","[1]; +LIF, replicate i",1.500 µm2s-1
same,"Percentage, Bound","[1]; +LIF, replicate i",32.7%
same,"Percentage, Diffusing","[1]; +LIF, replicate i",67.3%
same,"Diffusion coefficient, Bound","[1]; +LIF, replicate ii",0.100 µm2s-1
same,"Diffusion coefficient, Diffusing","[1]; +LIF, replicate ii",1.485 µm2s-1
same,"Percentage, Bound","[1]; +LIF, replicate ii",20.9%
same,"Percentage, Diffusing","[1]; +LIF, replicate ii",79.1%
same,"Diffusion coefficient, Bound","[1]; +LIF, replicate iii",0.00228 µm2s-1
same,"Diffusion coefficient, Diffusing","[1]; +LIF, replicate iii",1.500 µm2s-1
same,"Percentage, Bound","[1]; +LIF, replicate iii",0.4%
same,"Percentage, Diffusing","[1]; +LIF, replicate iii",99.6%
same,"Diffusion coefficient, Bound","[1]; +LIF, replicate iv",0.023 µm2s-1
same,"Diffusion coefficient, Diffusing","[1]; +LIF, replicate iv",1.500 µm2s-1
same,"Percentage, Bound","[1]; +LIF, replicate iv",4%
same,"Percentage, Diffusing","[1]; +LIF, replicate iv",96%
same,"diffusion coefficient of bound molecules, in words","[1]; mESCs, n = 4–5",remained unchanged
same,diffusion of diffusing molecules versus wildtype,"[1]; mESCs, n = 4–5, p value: 0.0001",moved significantly more quickly than wildtype molecules
same,"percentages of molecules within diffusing and bound fraction, significance versus WT","[1]; n = 4–5, p value > 0.165",ns.
same,"Diffusion coefficient, Diffusing","[1]; −LIF, replicate i",1.101 µm2s-1
same,"Percentage, Bound","[1]; −LIF, replicate i",10%
same,"Percentage, Diffusing","[1]; −LIF, replicate i",90%
same,"Diffusion coefficient, Bound","[1]; −LIF, replicate ii",0.098 µm2s-1
same,"Diffusion coefficient, Diffusing","[1]; −LIF, replicate ii",1.500 µm2s-1
same,"Percentage, Bound","[1]; −LIF, replicate ii",16.6%
same,"Percentage, Diffusing","[1]; −LIF, replicate ii",83.4%
HP1γR38/9K: HP1γ with both R38 and R39 mutated to lysine,"binding in pulldown, in words",[2],maintained binding to H3K9me3 peptides
same,"BLI binding, in words",[3],binds H3K9me3 peptides with similar affinity to the WT protein
same,"BLI binding, in words",[3]; listed as R38/9K,maintained binding to H3K9me3 peptides
same,"enhancement of citrullination by H3K9me3 peptides, in words","[4]; H3K9me3(1–16) peptides, mutant used as substrate",abolished
R39K: HP1γ with R39 substituted with lysine,"citrullination by PADI4, in words",[4],abolished
heterochromatin protein 1 gamma [HP1γ],citrullination of endogenous HP1γ in differentiating mESCs,[5],significantly less citrullinated in differentiating mESCs
same,"binding in pulldown, in words",[2],specifically binds to H3K9me3 peptides
same,"citrullination by PADI4, in words",[4],PADI4 citrullinates HP1γ in vitro
